Holding throughout (assay): Test D flooded paddy test plant response
What all share (type): in vivo
Holding throughout (details): Flood (flooded paddy test), visual rating on scale 0 to 100 (0 no effect, 100 complete control), 13 to 15 days

Test [1] deals with barnyardgrass (Echinochloa crus-galli). The text has this: (§1) Plant species in the flooded paddy test consisted of rice (Oryza sativa), small-flower umbrella sedge (Cyperus difformis), ducksalad (Heteranthera limosa), and bamyardgrass (Echinochloa crus-galli) grown to the 2-leaf stage for testing. At time of treatment, test pots were flooded to 3 cm above the soil surface, treated by application of test compounds directly to the paddy water, and then maintained at that water depth for the duration of the test. Treated plants and controls were maintained in a greenhouse for 13 to 15 days, after which time all species were compared to controls and visually evaluated. Plant response ratings, summarized in Table D, are based on a scale of 0 to 100 where 0 is no effect and 100 is complete control. A dash (-) response means no test result.

For test [2], the system named is ducksalad (Heteranthera limosa).
Excerpt: as §1

The subject of test [3] is rice (Oryza sativa).
Excerpt: as §1

The subject of test [4] is small-flower umbrella sedge (Cyperus difformis).
Excerpt: as §1

Structures are written as SMILES.

As to `FCc1cc(-c2ccccc2Oc2ncc(Cl)cn2)no1` [Compound 32, 5-chloro-2-[2-[5-(fluoromethyl)-3-isoxazolyl]phenoxy]pyrimidine], the “Plant response rating, Barnyardgrass” value worked out at 0 in test [1] (31 g ai/ha), 0 in test [1] (62 g ai/ha), 10 in test [1] (125 g ai/ha) and 20 in test [1] (250 g ai/ha). Also, the “Plant response rating, Ducksalad” value in test [2] (31 g ai/ha) turned out to be 0; in test [2] (62 g ai/ha), 60; in test [2] (125 g ai/ha), 65; in test [2] (250 g ai/ha), 95. The “Plant response rating, Rice” value turned out to be 0 in test [3] (31 g ai/ha), 0 in test [3] (62 g ai/ha), 0 in test [3] (125 g ai/ha) and 15 in test [3] (250 g ai/ha). Moreover, the “Plant response rating, Sedge, Umbrella” value in test [4] (31 g ai/ha) is reported as 0; in test [4] (62 g ai/ha), 40; in test [4] (125 g ai/ha) it was 65; in test [4] (250 g ai/ha), 90.
As for `CC(F)(F)c1cc(-c2ccccc2Oc2ncc(Cl)cn2)on1` [Compound 178], the “Plant response rating, Barnyardgrass” value in test [1] (31 g ai/ha), in test [1] (62 g ai/ha), in test [1] (125 g ai/ha) and in test [1] (250 g ai/ha) was 0 each time. Besides, the “Plant response rating, Ducksalad” value worked out at 40 in test [2] (31 g ai/ha), 65 in test [2] (62 g ai/ha), 70 in test [2] (125 g ai/ha) and 70 in test [2] (250 g ai/ha). The “Plant response rating, Rice” value in test [3] (31 g ai/ha), in test [3] (62 g ai/ha), in test [3] (125 g ai/ha) and in test [3] (250 g ai/ha) was 0 in each case. Also, the “Plant response rating, Sedge, Umbrella” value in test [4] (31 g ai/ha) is 30; in test [4] (62 g ai/ha), 60; in test [4] (125 g ai/ha), 60; in test [4] (250 g ai/ha), 75.
Take `N#Cc1cccc(Oc2ncc(Cl)cn2)c1-c1cc(C(F)F)on1` [Compound 180]: the “Plant response rating, Barnyardgrass” value in test [1] (31 g ai/ha) is 0; in test [1] (62 g ai/ha) it was 0; in test [1] (125 g ai/ha) it was 10; in test [1] (250 g ai/ha) it was 10. Moreover, the “Plant response rating, Ducksalad” value is on record as 0 in test [2] (31 g ai/ha), 0 in test [2] (62 g ai/ha), 75 in test [2] (125 g ai/ha) and 75 in test [2] (250 g ai/ha). For the same molecule, the “Plant response rating, Rice” value in test [3] (31 g ai/ha), in test [3] (62 g ai/ha), in test [3] (125 g ai/ha) and in test [3] (250 g ai/ha) was 0 throughout. Moreover, the “Plant response rating, Sedge, Umbrella” value in test [4] (31 g ai/ha) stood at 0; in test [4] (62 g ai/ha) it was 50; in test [4] (125 g ai/ha), 75; in test [4] (250 g ai/ha), 80.

These data come from patent US10131652B2, “Pyrimidinyloxy benzene derivatives as herbicides” (E. I. DU PONT DE NEMOURS AND COMPANY, priority 2014, dated 2018).
